Test results taken from ChEMBL document CHEMBL6078630, “Design, synthesis, and bioactivity investigation of novel cyclic lipopeptide antibiotics targeting top-priority multidrug-resistant gram-negative bacteria” (Eur J Med Chem, 2024).
Converted amounts (≈) assume the structure as drawn. Bridge positions count the residues as written; N and C are the ends. Square brackets hold non-standard residues; d marks the D form. Peptide text beside a SMILES is read from it. * marks the point of attachment. X1 = CC[C@H](C)CCCCC(=O)*; Dab = NCC[C@H](N)C(=O)O

Legend:
Type in all cases: functional
[1] = system: Pseudomonas aeruginosa; test: Antibacterial activity against carbapenem-resistant Pseudomonas aeruginosa clinical isolate ets83 assessed as inhibition of bacterial growth incubated for 24 hrs by CLSI protocol based broth microdilution method
[2] = system: Pseudomonas aeruginosa; test: Antibacterial activity against carbapenem-resistant Pseudomonas aeruginosa clinical isolate ets49 assessed as inhibition of bacterial growth incubated for 24 hrs by CLSI protocol based broth microdilution method
[3] = system: Klebsiella pneumoniae; test: Antibacterial activity against carbapenem-resistant Klebsiella pneumoniae clinical isolate ets78 assessed as inhibition of bacterial growth incubated for 24 hrs by CLSI protocol based broth microdilution method
[4] = system: Acinetobacter baumannii; test: Antibacterial activity against carbapenem-sensitive Acinetobacter baumannii clinical isolate 19-1 assessed as inhibition of bacterial growth incubated for 16 to 20 hrs by CLSI protocol based broth microdilution method; conditions: time 16-20 hrs
[5] = system: Pseudomonas aeruginosa; test: Antibacterial activity against carbapenem-resistant Pseudomonas aeruginosa clinical isolate ets5 assessed as inhibition of bacterial growth incubated for 24 hrs by CLSI protocol based broth microdilution method
[6] = system: Acinetobacter baumannii; test: Antibacterial activity against Acinetobacter baumannii NCTC 13304 (OXA-27) assessed as inhibition of bacterial growth incubated for 16 to 20 hrs by CLSI protocol based broth microdilution method; conditions: time 16-20 hrs
[7] = system: Pseudomonas aeruginosa; test: Antibacterial activity against carbapenem-resistant Pseudomonas aeruginosa clinical isolate ets38 assessed as inhibition of bacterial growth incubated for 24 hrs by CLSI protocol based broth microdilution method
[8] = system: Klebsiella pneumoniae; test: Antibacterial activity against carbapenem-resistant Klebsiella pneumoniae clinical isolate KPN+19-15 infected in ICR mouse model assessed as survival rate at 4 mg/kg, iv administered at 1 and 6 hrs post-infection and measured after 7 days relative to control; conditions: 168 h, time 7 day
[9] = system: Escherichia coli; test: Antibacterial activity against carbapenem-resistant Escherichia coli clinical isolate 231112E006B assessed as inhibition of bacterial growth incubated for 24 hrs by CLSI protocol based broth microdilution method
[10] = system: Acinetobacter baumannii; test: Antibacterial activity against carbapenem-resistant Acinetobacter baumannii clinical isolate ets123 assessed as inhibition of bacterial growth incubated for 24 hrs by CLSI protocol based broth microdilution method
[11] = system: Acinetobacter baumannii; test: Antibacterial activity against carbapenem-resistant Acinetobacter baumannii clinical isolate ets171 assessed as inhibition of bacterial growth incubated for 24 hrs by CLSI protocol based broth microdilution method
[12] = system: Pseudomonas aeruginosa; test: Antibacterial activity against carbapenem-resistant Pseudomonas aeruginosa clinical isolate ets104 assessed as inhibition of bacterial growth incubated for 24 hrs by CLSI protocol based broth microdilution method
[13] = system: Pseudomonas aeruginosa; test: Antibacterial activity against carbapenem-resistant Pseudomonas aeruginosa clinical isolate ets15 assessed as inhibition of bacterial growth incubated for 24 hrs by CLSI protocol based broth microdilution method
[14] = system: Pseudomonas aeruginosa; test: Antibacterial activity against carbapenem-resistant Pseudomonas aeruginosa clinical isolate ets22 assessed as inhibition of bacterial growth incubated for 24 hrs by CLSI protocol based broth microdilution method
[15] = system: Escherichia coli; test: Antibacterial activity against carbapenem-resistant Escherichia coli ATCC BAA-2340 assessed as inhibition of bacterial growth incubated for 16 to 20 hrs by CLSI protocol based broth microdilution method; conditions: time 16-20 hrs
[16] = system: Klebsiella pneumoniae; test: Antibacterial activity against carbapenem-resistant Klebsiella pneumoniae ATCC BAA-1705 assessed as inhibition of bacterial growth incubated for 16 to 20 hrs by CLSI protocol based broth microdilution method; conditions: time 16-20 hrs
[17] = system: Acinetobacter baumannii; test: Antibacterial activity against carbapenem-resistant Acinetobacter baumannii clinical isolate ets104 assessed as inhibition of bacterial growth incubated for 24 hrs by CLSI protocol based broth microdilution method
[18] = system: Pseudomonas aeruginosa; test: Antibacterial activity against carbapenem-resistant Pseudomonas aeruginosa clinical isolate ets85 assessed as inhibition of bacterial growth incubated for 24 hrs by CLSI protocol based broth microdilution method
[19] = system: Klebsiella pneumoniae; test: Antibacterial activity against carbapenem-resistant Klebsiella pneumoniae clinical isolate ets26 assessed as inhibition of bacterial growth incubated for 24 hrs by CLSI protocol based broth microdilution method
[20] = system: Klebsiella pneumoniae; test: Antibacterial activity against carbapenem-resistant Klebsiella pneumoniae clinical isolate KPN+19-15 infected in ICR mouse model administered intravenously with compound at 1 and 6 hrs post-infection and measured after 7 days; conditions: 168 h, route iv, time 7 day
[21] = system: Klebsiella pneumoniae; test: Antibacterial activity against carbapenem-resistant Klebsiella pneumoniae clinical isolate ets80 assessed as inhibition of bacterial growth incubated for 24 hrs by CLSI protocol based broth microdilution method
[22] = system: Pseudomonas aeruginosa; test: Antibacterial activity against Pseudomonas aeruginosa ATCC 27853 infected in ICR mouse model infected in ICR mouse model assessed as survival rate at 2 mg/kg, iv administered at 1 and 6 hrs post-infection and measured after 7 days relative to control; conditions: ATCC 27853, 168 h, time 7 day
[23] = system: Klebsiella pneumoniae; test: Antibacterial activity against carbapenem-resistant Klebsiella pneumoniae clinical isolate KPN+19-15 assessed as inhibition of bacterial growth incubated for 16 to 20 hrs by CLSI protocol based broth microdilution method; conditions: time 16-20 hrs
[24] = system: Pseudomonas aeruginosa; test: Antibacterial activity against carbapenem-resistant Pseudomonas aeruginosa clinical isolate ets84 assessed as inhibition of bacterial growth incubated for 24 hrs by CLSI protocol based broth microdilution method
[25] = system: Escherichia coli; test: Antibacterial activity against carbapenem-resistant Escherichia coli clinical isolate 231109W005 assessed as inhibition of bacterial growth incubated for 24 hrs by CLSI protocol based broth microdilution method
[26] = system: Escherichia coli; test: Antibacterial activity against carbapenem-resistant Escherichia coli clinical isolate 231016w014 assessed as inhibition of bacterial growth incubated for 24 hrs by CLSI protocol based broth microdilution method
[27] = system: Klebsiella pneumoniae; test: Antibacterial activity against carbapenem-resistant Klebsiella pneumoniae clinical isolate ets40 assessed as inhibition of bacterial growth incubated for 24 hrs by CLSI protocol based broth microdilution method
[28] = system: Klebsiella pneumoniae; test: Antibacterial activity against carbapenem-resistant Klebsiella pneumoniae clinical isolate ets45 assessed as inhibition of bacterial growth incubated for 24 hrs by CLSI protocol based broth microdilution method
[29] = system: Acinetobacter baumannii; test: Antibacterial activity against carbapenem-resistant Acinetobacter baumannii clinical isolate ets178 assessed as inhibition of bacterial growth incubated for 24 hrs by CLSI protocol based broth microdilution method
[30] = system: Klebsiella pneumoniae; test: Antibacterial activity against carbapenem-resistant Klebsiella pneumoniae clinical isolate ets75 assessed as inhibition of bacterial growth incubated for 24 hrs by CLSI protocol based broth microdilution method
[31] = system: Pseudomonas aeruginosa; test: Antibacterial activity against carbapenem-resistant Pseudomonas aeruginosa clinical isolate ets33 assessed as inhibition of bacterial growth incubated for 24 hrs by CLSI protocol based broth microdilution method
[32] = system: Pseudomonas aeruginosa; test: Antibacterial activity against carbapenem-resistant Pseudomonas aeruginosa clinical isolate ets55 assessed as inhibition of bacterial growth incubated for 24 hrs by CLSI protocol based broth microdilution method
[33] = system: Pseudomonas aeruginosa; test: Antibacterial activity against carbapenem-resistant Pseudomonas aeruginosa clinical isolate 19-3 assessed as inhibition of bacterial growth incubated for 16 to 20 hrs by CLSI protocol based broth microdilution method; conditions: time 16-20 hrs
[34] = system: Pseudomonas aeruginosa; test: Antibacterial activity against carbapenem-resistant Pseudomonas aeruginosa clinical isolate ets6 assessed as inhibition of bacterial growth incubated for 24 hrs by CLSI protocol based broth microdilution method
[35] = system: Klebsiella pneumoniae; test: Antibacterial activity against carbapenem-resistant Klebsiella pneumoniae clinical isolate ets74 assessed as inhibition of bacterial growth incubated for 24 hrs by CLSI protocol based broth microdilution method
[36] = system: Acinetobacter baumannii; test: Antibacterial activity against carbapenem-resistant Acinetobacter baumannii clinical isolate ets30 assessed as inhibition of bacterial growth incubated for 24 hrs by CLSI protocol based broth microdilution method
[37] = system: Escherichia coli; test: Antibacterial activity against Escherichia coli ATCC BAA-2523 assessed as inhibition of bacterial growth incubated for 16 to 20 hrs by CLSI protocol based broth microdilution method; conditions: time 16-20 hrs
[38] = system: Pseudomonas aeruginosa; test: Antibacterial activity against Pseudomonas aeruginosa ATCC 27853 assessed as inhibition of bacterial growth incubated for 16 to 20 hrs by CLSI protocol based broth microdilution method; conditions: time 16-20 hrs
[39] = system: Klebsiella pneumoniae; test: Antibacterial activity against carbapenem-resistant Klebsiella pneumoniae clinical isolate ets77 assessed as inhibition of bacterial growth incubated for 24 hrs by CLSI protocol based broth microdilution method
[40] = system: Pseudomonas aeruginosa; test: Antibacterial activity against Pseudomonas aeruginosa ATCC 27853 assessed as inhibition of bacterial growth incubated 24 hrs by cation adjusted Mueller-Hinton broth based method

CC(C)CCCCC(=O)N[C@@H](CCN)C(=O)N[C@H](C(=O)N[C@@H](CCN)C(=O)N[C@H]1CCNC(=O)[C@H]([C@@H](C)O)NC(=O)[C@H](CCN)NC(=O)[C@H](CCN)NC(=O)[C@H](CC(C)C)NC(=O)[C@@H](Cc2ccccc2)NC(=O)[C@H](CCN)NC1=O)[C@@H](C)O.CC[C@H](C)CCCCC(=O)N[C@@H](CCN)C(=O)N[C@H](C(=O)N[C@@H](CCN)C(=O)N[C@H]1CCNC(=O)[C@H]([C@@H](C)O)NC(=O)[C@H](CCN)NC(=O)[C@H](CCN)NC(=O)[C@H](CC(C)C)NC(=O)[C@@H](Cc2ccccc2)NC(=O)[C@H](CCN)NC1=O)[C@@H](C)O (X1-[Dab]T[Dab][Dab][Dab][dF]L[Dab][Dab]T; lactam 4-C)
MIC [1]: 1 µg/mL
MIC [2]: 4 µg/mL
MIC [3]: 0.5 µg/mL
MIC [4]: 0.25 µg/mL
MIC [5]: 2 µg/mL
MIC [6]: 0.06 µg/mL
MIC [7]: 4 µg/mL
survival at 4 mg/kg [8]: 62.5%
MIC [9]: < 0.06 µg/mL
MIC [10]: 1 µg/mL
MIC [11]: 2 µg/mL
MIC [12]: 4 µg/mL
MIC [13]: 1 µg/mL
MIC [14]: 4 µg/mL
MIC [15]: ≤ 0.03 µg/mL
MIC [16]: 0.125 µg/mL
MIC [17]: 0.125 µg/mL
MIC [18]: 4 µg/mL
MIC [19]: 2 µg/mL
ED50 [20]: 2.7 mg/kg
MIC [21]: 1 µg/mL
survival at 2 mg/kg [22]: 37.5%
MIC [23]: 0.125 µg/mL
MIC [24]: 0.5 µg/mL
MIC [25]: < 0.06 µg/mL
MIC [26]: < 0.06 µg/mL
MIC [27]: 1 µg/mL
MIC [28]: 2 µg/mL
MIC [29]: 2 µg/mL
MIC [30]: 1 µg/mL
MIC [31]: 4 µg/mL
MIC [32]: 4 µg/mL
MIC [33]: 0.25 µg/mL
MIC [34]: 2 µg/mL
MIC [35]: 1 µg/mL
MIC [36]: 1 µg/mL
MIC [37]: ≤ 0.03 µg/mL
MIC [38]: 0.25 µg/mL
MIC [39]: 1 µg/mL

CO[C@H]1/C=C/O[C@@]2(C)Oc3c(C)c(O)c4c(O)c(c(/C=N/N5CCN(C)CC5)c(O)c4c3C2=O)NC(=O)/C(C)=C\C=C\[C@H](C)[C@H](O)[C@@H](C)[C@@H](O)[C@@H](C)[C@H](OC(C)=O)[C@@H]1C [RIFAMPIN]
MIC [40]: 32 µg/mL (≈ 38.9 µM)
